Experimental data as given in patent US7847108B2, “Oxathiin carboxamides” (Bayer CropScience AG, priority 2003, dated 2010).
Where two headings read alike, the source gives them in different places.

Experiments:
Venturia inaequalis = test: Venturia test (apple)/protective; format: in vivo; details: 240 h, apple plants, protective, application rate 100 g/ha, evaluation 10 days after inoculation, read-out: % efficacy
Procedure: Venturia Test (Apple)/Protective
• Solvents: 24.5 parts by weight of acetone 24.5 parts by weight of dimethylacetamide • Emulsifier: 1 part by weight of alkylaryl polyglycol ether
(§1) To produce a suitable preparation of active compound, 1 part by weight of active compound is mixed with the stated amounts of solvents and emulsifier, and the concentrate is diluted with water to the desired concentration.
To test for protective activity, young plants are sprayed with the preparation of active compound at the stated application rate. After the spray coating has dried on, the plants are inoculated with an aqueous conidia suspension of the apple scab pathogen Venturia inaequalis and then remain in an incubation cabin at about 20° C. and 100% relative atmospheric humidity for 1 day.
The plants are then placed in a greenhouse at about 21° C. and a relative atmospheric humidity of about 90%.
Evaluation is carried out 10 days after the inoculation. 0% means an efficacy which corresponds to that of the control, whereas an efficacy of 100% means that no infection is observed.

[1] = logP determination by HPLC on reversed-phase column (EEC Directive 79/831 Annex V.A8); format: physicochemical; details: reversed-phase C18 HPLC column
Procedure: The given logP values were determined in accordance with EEC Directive 79/831 Annex V.A8 by HPLC (High Performance Liquid Chromatography) on a reversed-phase column (C 18). Temperature: 43° C. […] Calibration was carried out using unbranched alkan-2-ones (having 3 to 16 carbon atoms) with known logP values (determination of the logP values by the retention times using linear interpolation between two successive alkanones).

Botrytis cinerea = test: Botrytis test (bean)/protective; format: in vivo; details: 48 h, bean plants, protective, application rate 500 g/ha, evaluation 2 days after inoculation, read-out: % efficacy
Procedure: Botrytis Test (Bean)/Protective
• Solvents:24.5 parts by weight of acetone 24.5 parts by weight of dimethylacetamide • Emulsifier: 1 part by weight of alkylaryl polyglycol ether
as §1
To test for protective activity, young plants are sprayed with the preparation of active compound at the stated application rate. After the spray coating has dried on, 2 small pieces of agar colonized with Botrytis cinerea are placed onto each leaf. The inoculated plants are placed in a dark chamber at about 20° C. and 100% relative atmospheric humidity.
2 days after the inoculation, the size of the infected areas on the leaves is evaluated. 0% means an efficacy which corresponds to that of the control, whereas an efficacy of 100% means that no infection is observed.

Puccinia recondite = test: Puccinia test (wheat)/protective; format: in vivo; details: 240 h, wheat plants, protective, application rate 500 g/ha, evaluation 10 days after inoculation, solvent/emulsifier parts 25/0.5, 25/0.6 or 50/1.0, read-out: % efficacy
Procedure: Puccinia Test (Wheat)/Protective • Solvent: N,N-dimethylacetamide • Emulsifier: alkylaryl polyglycol ether […] To test for protective activity, young plants are sprayed with the preparation of active compound at the stated application rate. After the spray coating has dried on, the plants are sprayed with a conidia suspension of Puccinia recondite. […] The plants are then placed in a greenhouse at a temperature of about 20° C. and a relative atmospheric humidity of 80% to promote the development of rust pustules.

Alternaria solani = test: Alternaria test (tomato)/protective; format: in vivo; details: tomato plants, protective, application rate 750 g/ha, evaluation 7 days after inoculation
Procedure: Alternaria Test (Tomato)/Protective
• Solvent: 49 parts by weight of N,N-dimethylformamide • Emulsifier: 1 part by weight of alkylaryl polyglycol ether
To produce a suitable preparation of active compound, 1 part by weight of active compound is mixed with the stated amounts of solvent and emulsifier, and the concentrate is diluted with water to the desired concentration.
To test for protective activity, young tomato plants are sprayed with the preparation of active compound at the stated application rate. 1 day after the treatment, the plants are inoculated with a spore suspension of Alternaria solani and are then allowed to stand at 100% relative humidity and 20° C. for 24 h. The plants are then allowed to stand at 96% relative atmospheric humidity and a temperature of 20° C.
Evaluation is carried out 7 days after the inoculation. 0% means an efficacy which corresponds to that of the control, whereas an efficacy of 100% means that no infection is observed.

[2] = Table 1 logP / m.p., C18, 43° C., acidic range (pH 2.3), read-out: logP

Row | Structure (SMILES) | pest or weed control at 100 g/ha (Venturia inaequalis) [%] | chromatographic logP ([1]; pH 2.3, C18, 43° C., read-out: logP (pH 2.3)) | pest or weed control at 500 g/ha (Botrytis cinerea) [%] | pest or weed control at 500 g/ha (Puccinia recondite) [%] | % efficacy (Alternaria solani) [%] | chromatographic logP [1, 2]
1 | CC(CC(C)(C)C)c1ccccc1NC(=O)C1=C(C(F)(F)F)OCCS1 (stereo not drawn) [Example 2, N-[2-(1,3,3-trimethylbutyl)phenyl]-6-trifluoromethyl-2,3-dihydro-1,4-oxathiin-5-carboxamide] | 98 | 4.18 | 100 | 100 | 100 | –
2 | CC1CC(C)(C)c2cccc(NC(=O)C3=C(C(F)(F)F)OCCS3)c21 (stereo not drawn) [Example 12] | 100 | – | 97 | – | – | –
3 | O=C(Nc1ccc(F)cc1-c1ccc(Cl)c(Cl)c1)C1=C(C(F)(F)F)OCCS1 [Example 17] | 100 | – | 96 | 86 | – | 3.95
4 | CC(C)CC(C)c1ccccc1NC(=O)C1=C(C(F)(F)F)OCCS1 (stereo not drawn) [Example 18] | 100 | – | 100 | 100 | – | 3.92
5 | O=C(Nc1ccccc1-c1ccc(Cl)c(Cl)c1)C1=C(C(F)(F)F)OCCS1 [Example 19] | 100 | – | 100 | 100 | 100 | 3.91
6 | O=C(Nc1ccccc1-c1ccc(C(F)(F)F)cc1)C1=C(C(F)(F)F)OCCS1 [Example 20] | 88 | – | 100 | – | – | 3.73
7 | CC(C)O/N=C/c1ccc(-c2ccccc2NC(=O)C2=C(C(F)(F)F)OCCS2)cc1 [Example 21] | 100 | – | 100 | – | 100 | 4.22
8 | CCCO/N=C/c1ccc(-c2ccccc2NC(=O)C2=C(C(F)(F)F)OCCS2)cc1 [Example 22] | 100 | – | 100 | – | – | 4.25
9 | O=C(Nc1ccccc1-c1ccc(Cl)c(F)c1)C1=C(C(F)(F)F)OCCS1 [Example 23] | – | – | – | 89 | – | 3.62
10 | O=C(Nc1ccccc1-c1ccc(F)c(Cl)c1)C1=C(C(F)(F)F)OCCS1 [Example 24] | – | – | – | 100 | – | 3.6
11 | Cc1cc(Cl)ccc1-c1ccccc1NC(=O)C1=C(C(F)(F)F)OCCS1 [Example 26] | – | – | – | – | 100 | 4
12 | O=C(Nc1ccccc1-c1ccc(Br)cc1)C1=C(C(F)(F)F)OCCS1 [Example 27] | – | – | – | 88 | – | 3.7
13 | O=C(Nc1ccccc1-c1ccc(C(F)(F)F)c(F)c1)C1=C(C(F)(F)F)OCCS1 [Example 29] | – | – | – | 94 | – | 3.75
14 | Cc1cc(-c2ccccc2NC(=O)C2=C(C(F)(F)F)OCCS2)ccc1F [Example 35] | – | – | – | 88 | – | 3.65
15 | CC(CC1CCCC1)c1ccccc1NC(=O)C1=C(C(F)(F)F)OCCS1 (stereo not drawn) [Example 37] | – | – | – | 93 | – | 4.38
16 | Cc1ccc(-c2ccccc2NC(=O)C2=C(C(F)(F)F)OCCS2)cc1Cl [Example 38] | – | – | – | 88 | – | 3.89
17 | CC/C(=N\OC)c1ccc(-c2ccccc2NC(=O)C2=C(C(F)(F)F)OCCS2)cc1 [Example 56] | – | – | – | 88 | – | 4.08
18 | O=C(Nc1ccccc1-c1ccc(Br)c(F)c1)C1=C(C(F)(F)F)OCCS1 [Example 57] | – | – | – | 88 | – | 3.69
19 | O=C(Nc1ccccc1-c1ccc(Cl)cc1Cl)C1=C(C(F)(F)F)OCCS1 [Example 79] | – | – | – | 86 | – | 3.82
20 | CC(C)CC(C)c1ccccc1NC(=O)C1=C(C(F)F)OCCS1 (stereo not drawn) [Example 82] | – | – | – | 100 | – | 4.03
